Measurements: ChEMBL document CHEMBL4616725, “Global PROTAC Toolbox for Degrading BCR-ABL Overcomes Drug-Resistant Mutants and Adverse Effects” (J Med Chem, 2020)
Activity calls are given as the source filed them. The calls are words filed in the database; no cut-off is given here.

Assays:
[1] = system: Protein cereblon/Tyrosine-protein kinase ABL1/Breakpoint cluster region protein (Homo sapiens), P00519+P11274+Q96SW2 [E255K]; experiment: Protac activity at Cereblon/BCR/ABL E255K mutant (unknown origin) expressed in human HeLa cells assessed as reduction in BCR-ABL E255K mutant protein levels at 10 to 10000 nM incubated for 32 hrs by Western blot analysis; format: cell-based
H9c2 = experiment: Antiproliferative activity against rat H9C2 cells incubated for 3 days by CCK8 assay; format: cell-based; conditions: H9c2, 72 h
[2] = system: Protein cereblon/Tyrosine-protein kinase ABL1/Breakpoint cluster region protein (Homo sapiens), P00519+P11274+Q96SW2 [V468F]; experiment: Protac activity at Cereblon/BCR/ABL V468F mutant (unknown origin) expressed in human HeLa cells assessed as reduction in BCR-ABL V468F mutant protein levels at 10 to 10000 nM incubated for 32 hrs by Western blot analysis; format: cell-based
[3] = molecular target: Protein cereblon/Receptor-type tyrosine-protein kinase FLT3 (Homo sapiens, UniProt P36888+Q96SW2); experiment: Protac activity at Cereblon/Flt3 in human K562 cells assessed as reduction in Flt3 protein levels at 3 to 30000 nM incubated for 48 hrs by Western blot analysis; format: ADME, cell-based
[4] = system: Protein cereblon/Tyrosine-protein kinase ABL1/Breakpoint cluster region protein (Homo sapiens), P00519+P11274+Q96SW2 [H396R]; experiment: Protac activity at Cereblon/BCR/ABL H396R mutant (unknown origin) expressed in human HeLa cells assessed as reduction in BCR-ABL H396R mutant protein levels at 10 to 10000 nM incubated for 32 hrs by Western blot analysis; format: cell-based
BaF3 = experiment: Antiproliferative activity against wild type mouse BA/F3 cells incubated for 3 days by CCK8 assay; format: cell-based; conditions: BaF3, 72 h
[5] = molecular target: Protein cereblon/Tyrosine-protein kinase ABL1/Breakpoint cluster region protein (Homo sapiens, UniProt P00519+P11274+Q96SW2, T315I); format: cell-based, BaF3
[6] = molecular target: T1, Proto-oncogene tyrosine-protein kinase Src (Homo sapiens, UniProt P12931); experiment: Safety index, ratio of compound IC50 to ponatinib IC50 for inhibition of human c-SRC using poly(Glu,Tyr)4:1 substrate and [gamma-33P]-ATP incubated for 40 mins by scintillation counting method
T1 sequence (P12931 2-536 limits assumed): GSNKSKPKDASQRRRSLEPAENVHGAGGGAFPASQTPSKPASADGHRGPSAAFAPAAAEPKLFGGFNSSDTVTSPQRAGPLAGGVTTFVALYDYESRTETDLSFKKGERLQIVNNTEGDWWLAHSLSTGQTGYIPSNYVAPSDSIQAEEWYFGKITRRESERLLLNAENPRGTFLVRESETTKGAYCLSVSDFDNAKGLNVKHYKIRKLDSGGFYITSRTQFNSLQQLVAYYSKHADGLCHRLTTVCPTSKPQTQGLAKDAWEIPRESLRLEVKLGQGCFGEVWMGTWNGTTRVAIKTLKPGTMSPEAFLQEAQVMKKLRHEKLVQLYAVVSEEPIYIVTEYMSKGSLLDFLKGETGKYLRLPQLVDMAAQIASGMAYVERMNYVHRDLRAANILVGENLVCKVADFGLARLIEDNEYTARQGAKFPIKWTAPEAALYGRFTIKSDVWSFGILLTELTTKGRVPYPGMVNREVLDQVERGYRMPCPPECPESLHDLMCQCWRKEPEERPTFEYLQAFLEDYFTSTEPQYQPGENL

[7] = molecular target: T2, Protein cereblon/Tyrosine-protein kinase ABL1/Breakpoint cluster region protein (Homo sapiens, UniProt P00519+P11274+Q96SW2); experiment: Protac activity at Cereblon/BCR/ABL in human K562 cells assessed as synergistic antiproliferation effect by measuring combination index at 0.25 to 4 times alone antiproliferative EC50 ibn presence of hedgehog pathway inhibitor […] by Chou-Talalay method; format: cell-based
HUVEC [8] = experiment: Antiproliferative activity against human HUVEC incubated for 3 days by CCK8 assay; format: cell-based; conditions: 72 h
[9] = molecular target: T3, Tyrosine-protein kinase ABL1 (Homo sapiens, UniProt P00519, T315I); experiment: Safety index, ratio of compound IC50 to ponatinib IC50 for inhibition of human ABL T315I mutant using EAIYAAPFAKKK substrate and [gamma-33P]-ATP incubated for 40 mins by scintillation counting method
[10] = molecular target: Protein cereblon/Mast/stem cell growth factor receptor Kit (Homo sapiens, UniProt P10721+Q96SW2); experiment: Protac activity at Cereblon/C-Kit in human K562 cells assessed as reduction in C-Kit protein levels at 3 to 30000 nM incubated for 48 hrs by Western blot analysis; format: ADME, cell-based; conditions: k562, 48 h, 30 µM
Chain of Protein cereblon/Mast/stem cell growth factor receptor Kit (P10721 whole entry): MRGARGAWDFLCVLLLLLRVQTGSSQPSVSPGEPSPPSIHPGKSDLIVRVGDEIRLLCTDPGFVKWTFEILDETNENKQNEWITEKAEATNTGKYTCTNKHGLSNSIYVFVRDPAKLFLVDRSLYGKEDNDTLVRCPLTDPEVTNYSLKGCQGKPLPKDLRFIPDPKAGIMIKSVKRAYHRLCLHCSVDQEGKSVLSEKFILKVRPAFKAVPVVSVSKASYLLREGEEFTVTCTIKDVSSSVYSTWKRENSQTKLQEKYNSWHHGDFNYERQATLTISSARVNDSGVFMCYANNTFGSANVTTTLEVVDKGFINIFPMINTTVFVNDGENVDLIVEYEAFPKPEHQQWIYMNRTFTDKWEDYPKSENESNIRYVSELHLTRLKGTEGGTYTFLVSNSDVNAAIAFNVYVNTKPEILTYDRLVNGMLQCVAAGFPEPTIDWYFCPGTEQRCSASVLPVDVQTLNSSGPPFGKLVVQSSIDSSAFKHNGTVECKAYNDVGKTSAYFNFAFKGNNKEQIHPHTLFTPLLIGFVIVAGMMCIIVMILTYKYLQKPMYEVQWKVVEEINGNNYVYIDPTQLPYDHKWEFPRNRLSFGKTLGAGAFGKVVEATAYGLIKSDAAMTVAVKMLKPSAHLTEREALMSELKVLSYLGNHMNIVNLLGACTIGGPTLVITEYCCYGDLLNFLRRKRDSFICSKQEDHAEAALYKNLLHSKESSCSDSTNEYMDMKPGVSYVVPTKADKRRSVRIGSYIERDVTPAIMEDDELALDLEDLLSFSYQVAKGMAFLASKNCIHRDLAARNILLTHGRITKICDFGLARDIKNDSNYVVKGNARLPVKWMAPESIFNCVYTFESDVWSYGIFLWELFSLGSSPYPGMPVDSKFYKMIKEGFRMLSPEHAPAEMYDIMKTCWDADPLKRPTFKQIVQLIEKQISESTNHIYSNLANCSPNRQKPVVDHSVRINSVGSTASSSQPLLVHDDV
Chain of Protein cereblon/Mast/stem cell growth factor receptor Kit (Q96SW2 whole entry): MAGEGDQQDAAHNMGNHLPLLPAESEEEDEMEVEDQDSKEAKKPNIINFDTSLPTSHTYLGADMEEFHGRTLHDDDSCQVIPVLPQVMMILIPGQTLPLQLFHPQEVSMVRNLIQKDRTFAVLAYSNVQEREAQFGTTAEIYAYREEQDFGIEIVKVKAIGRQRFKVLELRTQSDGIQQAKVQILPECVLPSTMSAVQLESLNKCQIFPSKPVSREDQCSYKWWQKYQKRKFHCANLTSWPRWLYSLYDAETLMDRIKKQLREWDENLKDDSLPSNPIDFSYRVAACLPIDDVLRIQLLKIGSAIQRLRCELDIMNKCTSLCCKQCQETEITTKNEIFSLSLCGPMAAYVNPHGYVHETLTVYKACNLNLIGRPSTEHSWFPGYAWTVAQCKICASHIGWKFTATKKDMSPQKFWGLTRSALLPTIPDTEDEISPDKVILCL

HUVEC [11] = experiment: Toxicity in HUVEC assessed as inhibition of tube formation at 1 uM incubated for 20 hrs by optical microscopy based matrigel-based assay; format: cell-based; conditions: human
[12] = molecular target: Protein cereblon/Proto-oncogene tyrosine-protein kinase Src (Homo sapiens, UniProt P12931+Q96SW2); experiment: Protac activity at Cereblon/Src in human K562 cells assessed as reduction in Src protein levels at 3 to 30000 nM incubated for 48 hrs by Western blot analysis; format: ADME, cell-based; conditions: k562, 48 h, 30 µM
Chain of Protein cereblon/Proto-oncogene tyrosine-protein kinase Src (P12931 2-536 limits assumed): as the sequence (P12931 2-536 limits assumed) above
Chain of Protein cereblon/Proto-oncogene tyrosine-protein kinase Src (Q96SW2 whole entry): as the sequence (Q96SW2 whole entry) above

K562 = experiment: Antiproliferative activity against human K562 cells incubated for 3 days by CCK8 assay; format: functional, cell-based; conditions: K562, 72 h
[13] = molecular target: T1, Proto-oncogene tyrosine-protein kinase Src; experiment: Inhibition of human c-SRC using poly(Glu,Tyr)4:1 substrate and [gamma-33P]-ATP incubated for 40 mins by scintillation counting method
[14] = molecular target: T2, Protein cereblon/Tyrosine-protein kinase ABL1/Breakpoint cluster region protein; experiment: Protac activity at Cereblon/BCR/ABL in human K562 cells assessed as induction of BCR-ABL degradation incubated for 32 to 48 hrs by Western blot analysis; format: cell-based
[15] = system: Protein cereblon/Tyrosine-protein kinase ABL1/Breakpoint cluster region protein (Homo sapiens), P00519+P11274+Q96SW2 [T315I]; experiment: Protac activity at Cereblon/BCR/ABL T315I mutant (unknown origin) expressed in mouse BaF3 cells assessed as reduction in BCR-ABL T315I mutant protein levels at 3 to 30000 nM incubated for 32 hrs by Western blot analysis; format: cell-based
[16] = molecular target: Tyrosine-protein kinase Lyn (Homo sapiens, UniProt P07948); experiment: Inhibition of human LYN using poly(Glu,Tyr)4:1 substrate and [gamma-33P]-ATP incubated for 40 mins by scintillation counting method
[17] = molecular target: T3, Tyrosine-protein kinase ABL1; experiment: Inhibition of human ABL T315I mutant using EAIYAAPFAKKK substrate and [gamma-33P]-ATP incubated for 40 mins by scintillation counting method
[18] = molecular target: Vascular endothelial growth factor receptor 2 (Homo sapiens, UniProt P35968); experiment: Inhibition of human VEGFR2 using MBP substrate and [gamma-33P]-ATP incubated for 40 mins by scintillation counting method
Chain of Vascular endothelial growth factor receptor 2 (P35968 whole entry): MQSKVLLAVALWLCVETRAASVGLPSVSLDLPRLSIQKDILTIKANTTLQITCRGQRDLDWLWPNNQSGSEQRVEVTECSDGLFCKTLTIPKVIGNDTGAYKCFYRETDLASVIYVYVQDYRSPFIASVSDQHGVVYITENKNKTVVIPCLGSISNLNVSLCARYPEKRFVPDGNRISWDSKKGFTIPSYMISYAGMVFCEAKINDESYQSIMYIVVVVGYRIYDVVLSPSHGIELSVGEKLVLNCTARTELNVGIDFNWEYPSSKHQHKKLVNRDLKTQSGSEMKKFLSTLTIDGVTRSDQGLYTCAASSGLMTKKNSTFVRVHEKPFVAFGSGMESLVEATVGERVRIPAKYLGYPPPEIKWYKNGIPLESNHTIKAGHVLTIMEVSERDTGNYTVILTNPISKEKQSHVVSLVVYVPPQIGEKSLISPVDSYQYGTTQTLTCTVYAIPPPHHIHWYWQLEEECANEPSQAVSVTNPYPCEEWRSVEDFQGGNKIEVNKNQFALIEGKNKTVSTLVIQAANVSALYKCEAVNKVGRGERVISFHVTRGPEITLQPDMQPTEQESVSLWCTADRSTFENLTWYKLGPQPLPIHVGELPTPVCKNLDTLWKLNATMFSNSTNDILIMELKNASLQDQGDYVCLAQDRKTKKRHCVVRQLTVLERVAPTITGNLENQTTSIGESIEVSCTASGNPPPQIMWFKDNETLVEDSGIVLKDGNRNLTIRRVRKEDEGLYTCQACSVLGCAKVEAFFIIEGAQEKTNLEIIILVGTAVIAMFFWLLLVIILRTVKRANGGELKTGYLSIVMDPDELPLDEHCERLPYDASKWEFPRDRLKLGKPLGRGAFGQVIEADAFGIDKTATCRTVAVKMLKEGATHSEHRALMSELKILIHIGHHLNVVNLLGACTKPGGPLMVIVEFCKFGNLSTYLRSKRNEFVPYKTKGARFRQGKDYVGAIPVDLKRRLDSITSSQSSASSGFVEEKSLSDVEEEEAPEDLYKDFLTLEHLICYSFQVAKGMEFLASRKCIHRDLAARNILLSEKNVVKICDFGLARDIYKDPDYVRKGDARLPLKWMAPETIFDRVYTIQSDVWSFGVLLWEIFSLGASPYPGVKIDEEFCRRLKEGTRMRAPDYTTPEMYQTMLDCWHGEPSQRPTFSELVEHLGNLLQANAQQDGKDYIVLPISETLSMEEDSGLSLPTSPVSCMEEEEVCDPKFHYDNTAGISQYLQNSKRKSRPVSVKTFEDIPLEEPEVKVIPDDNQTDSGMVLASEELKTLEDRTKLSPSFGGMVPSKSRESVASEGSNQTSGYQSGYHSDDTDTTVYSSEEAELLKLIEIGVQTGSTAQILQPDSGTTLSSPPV

[19] = molecular target: Protein cereblon/Platelet-derived growth factor receptor alpha (Homo sapiens, UniProt P16234+Q96SW2); experiment: Protac activity at Cereblon/PDGFRalpha in human K562 cells assessed as reduction in PDGFRalpha protein levels at 3 to 30000 nM incubated for 48 hrs by Western blot analysis; format: ADME, cell-based; conditions: k562, 48 h, 30 µM
Chain of Protein cereblon/Platelet-derived growth factor receptor alpha (P16234 whole entry): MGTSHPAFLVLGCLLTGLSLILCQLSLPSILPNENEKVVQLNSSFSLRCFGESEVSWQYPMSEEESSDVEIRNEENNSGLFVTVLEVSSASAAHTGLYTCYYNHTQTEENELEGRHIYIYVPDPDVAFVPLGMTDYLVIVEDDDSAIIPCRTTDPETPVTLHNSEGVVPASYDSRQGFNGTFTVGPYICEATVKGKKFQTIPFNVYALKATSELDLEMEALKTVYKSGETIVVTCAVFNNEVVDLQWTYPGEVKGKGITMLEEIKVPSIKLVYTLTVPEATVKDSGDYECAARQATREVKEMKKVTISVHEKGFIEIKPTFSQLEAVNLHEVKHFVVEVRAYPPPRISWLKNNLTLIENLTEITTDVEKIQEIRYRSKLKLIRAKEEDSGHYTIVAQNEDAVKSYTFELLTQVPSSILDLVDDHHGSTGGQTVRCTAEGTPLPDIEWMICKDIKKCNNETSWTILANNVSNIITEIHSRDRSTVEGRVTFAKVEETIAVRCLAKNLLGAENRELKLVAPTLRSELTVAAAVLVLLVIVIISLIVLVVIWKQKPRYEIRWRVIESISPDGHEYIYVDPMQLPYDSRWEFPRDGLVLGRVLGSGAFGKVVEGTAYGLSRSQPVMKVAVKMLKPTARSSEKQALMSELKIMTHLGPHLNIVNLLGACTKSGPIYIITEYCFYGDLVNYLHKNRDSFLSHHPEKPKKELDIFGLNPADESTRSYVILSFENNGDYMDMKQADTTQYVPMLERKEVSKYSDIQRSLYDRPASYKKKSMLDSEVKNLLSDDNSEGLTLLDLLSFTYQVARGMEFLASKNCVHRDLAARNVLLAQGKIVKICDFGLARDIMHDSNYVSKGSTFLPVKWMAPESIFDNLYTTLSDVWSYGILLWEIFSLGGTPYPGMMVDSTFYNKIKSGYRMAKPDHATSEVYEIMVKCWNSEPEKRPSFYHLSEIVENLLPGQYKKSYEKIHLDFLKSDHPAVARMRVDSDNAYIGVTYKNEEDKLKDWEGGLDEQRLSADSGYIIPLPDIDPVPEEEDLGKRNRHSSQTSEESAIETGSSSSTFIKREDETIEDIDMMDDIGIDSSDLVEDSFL
Chain of Protein cereblon/Platelet-derived growth factor receptor alpha (Q96SW2 whole entry): as the sequence (Q96SW2 whole entry) above

In the case of `Cc1ccc(C(=O)Nc2ccc(CN3CCN(C(=O)CCCc4cn(CCOCCOCCOCCNc5cccc6c5C(=O)N(C5CCC(=O)NC5=O)C6=O)nn4)CC3)c(C(F)(F)F)c2)cc1C#Cc1cnc2cccnn12` (configuration not stated), the Activity [1] is reported as “Active”, the EC50 (H9c2) is reported as greater than 10000 nM and the Activity [2] is reported as “Active”. For the same molecule, the IC50 [3] was greater than 300 nM, the Activity [4] was “Active” and the EC50 (BaF3) was greater than 10000 nM. The EC50 [5] was 28.5 nM, the “Ratio IC50” value [6] was 257 and the CI [7] was less than 1. For the same molecule, the EC50 (HUVEC [8]) was greater than 10000 nM, the “Ratio IC50” value [9] was 13 and the Activity [10] was “Not Active”. The Activity (HUVEC [11]) was “Non-Toxic”, the Activity [12] was “Not Active” and the IC50 (K562) was 7.5 nM. For the same molecule, the IC50 [13] was 2580 nM, the DC50 [14] was 20 nM and the Activity [15] was “Active”. It also gave an IC50 [16] of 44.2 nM, an IC50 [17] of 13.1 nM and an IC50 [18] of 441 nM. For the same molecule, the Activity [19] was “Not Active”.
